Assay results reported in the NIST ThermoML archive (doi:10.1016/j.jct.2011.09.003).
Numbers after ± are expanded uncertainties.

Columns and labels:
[1] = xn = mol fraction of the nth substance listed; details: 298.15 K; for surface tension liquid-gas: digital tensiometer; for mass density: 101 kPa, Liquid, Vibrating tube method
[2] = for surface tension liquid-gas: digital tensiometer; for mass density: 101.33 kPa, Liquid, Vibrating tube method

CCCC[n+]1ccccc1.O=[N+]([O-])[O-] [1-butylpyridinium nitrate] + O
[1]
Details | mass density [kg/m3] | surface tension liquid-gas [mN/m]
x1 = 0.0097 | 1016.3 ± 1.6 | 43.71 ± 2.2
x1 = 0.015 | 1024.4 ± 1.3 | 40.11 ± 0.36
x1 = 0.0359 | 1051.1 ± 1.2 | 37.59 ± 0.31
x1 = 0.0498 | 1067 ± 1.1 | 37.5 ± 0.3
x1 = 0.0593 | 1076.1 ± 0.8 | 37.6 ± 0.3
x1 = 0.0816 | 1092.6 ± 0.7 | 38.02 ± 0.31
x1 = 0.1136 | 1113.6 ± 0.4 | 40.03 ± 0.31
x1 = 0.2067 | 1144.7 ± 0.3 | 41.69 ± 0.31
x1 = 0.3247 | 1165.5 ± 0.2 | 44.01 ± 0.32
x1 = 0.447 | 1176.9 ± 0.2 | 46.05 ± 0.33
x1 = 0.633 | 1182.2 ± 0.3 | 48.01 ± 0.34
x1 = 0.7604 | 1185.3 ± 0.3 | 49.25 ± 0.36
x1 = 0.8226 | 1186.6 ± 0.3 | 49.56 ± 0.37
x1 = 0.9023 | 1188 ± 0.4 | 50.78 ± 0.38
x1 = 1 | 1188.5 ± 0.4 | 51.53 ± 0.4

O [water] + CCCC[n+]1ccccc1.O=[N+]([O-])[O-]
[1], x2 = 0
Details | mass density [kg/m3] | surface tension liquid-gas [mN/m]
– | 1000 ± 0.1 | 72.03 ± 0.31

CCCC[n+]1ccccc1.O=[N+]([O-])[O-] [1-butylpyridinium nitrate]
[2]
Details | mass density [kg/m3] | surface tension liquid-gas [mN/m]
293.15 K | 1192.7 ± 0.4 | 52.32 ± 0.4
298.15 K | 1188.5 ± 0.4 | 51.53 ± 0.4
303.15 K | 1185.4 ± 0.4 | 51.21 ± 0.39
308.15 K | 1181.2 ± 0.4 | 50.97 ± 0.39
313.15 K | 1176.5 ± 0.4 | 50.53 ± 0.39
318.15 K | 1173.5 ± 0.4 | 49.99 ± 0.39
323.15 K | 1169.2 ± 0.4 | 49.53 ± 0.39
328.15 K | 1165.6 ± 0.4 | 49.3 ± 0.4
333.15 K | 1163.2 ± 0.4 | 48.96 ± 0.39
338.15 K | 1159.4 ± 0.4 | 48.64 ± 0.39
